In ChEMBL document CHEMBL4507304, “Data for DCP probe TP-021” (2021):

What was measured:
[1] = tested on: Tyrosine-protein kinase ABL1 (Homo sapiens), P00519 [F317L]; settings: Compound concentration 1000.0 nM
[2] = target: Tyrosine-protein kinase ABL1 (Homo sapiens) (UniProt P00519); settings: Compound concentration 1000.0 nM
[3] = target: Calcium/calmodulin-dependent protein kinase type 1G (Homo sapiens) (UniProt Q96NX5); settings: Compound concentration 1000.0 nM
[4] = target: Calcium/calmodulin-dependent protein kinase type II subunit gamma (Homo sapiens) (UniProt Q13555); settings: Compound concentration 1000.0 nM
Chain of Calcium/calmodulin-dependent protein kinase type II subunit gamma (Homo sapiens) (Q13555 whole entry): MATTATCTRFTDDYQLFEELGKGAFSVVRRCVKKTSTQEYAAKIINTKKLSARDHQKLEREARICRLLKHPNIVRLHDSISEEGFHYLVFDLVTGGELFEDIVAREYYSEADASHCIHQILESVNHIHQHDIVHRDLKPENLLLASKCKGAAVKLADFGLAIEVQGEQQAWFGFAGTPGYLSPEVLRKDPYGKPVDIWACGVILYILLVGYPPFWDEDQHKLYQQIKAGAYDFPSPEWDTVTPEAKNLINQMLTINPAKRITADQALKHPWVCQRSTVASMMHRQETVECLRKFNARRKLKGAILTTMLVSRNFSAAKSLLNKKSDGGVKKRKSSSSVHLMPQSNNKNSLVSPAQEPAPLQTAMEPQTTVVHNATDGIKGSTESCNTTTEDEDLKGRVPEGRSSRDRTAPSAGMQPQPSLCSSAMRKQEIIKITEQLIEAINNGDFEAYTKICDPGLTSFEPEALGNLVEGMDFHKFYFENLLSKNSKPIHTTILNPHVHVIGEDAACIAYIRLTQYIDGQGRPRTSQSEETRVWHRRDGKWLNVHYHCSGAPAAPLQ

[5] = target: Cyclin-dependent kinase 4 (Homo sapiens) (UniProt P11802); settings: Compound concentration 1000.0 nM
[6] = target: Serine/threonine-protein kinase Chk1 (Homo sapiens) (UniProt O14757); settings: Compound concentration 1000.0 nM
[7] = target: Dual specificity tyrosine-phosphorylation-regulated kinase 1A (Homo sapiens) (UniProt Q13627); settings: Compound concentration 1000.0 nM
[8] = tested on: Epidermal growth factor receptor (Homo sapiens), P00533 [UNDEFINED MUTATION]; settings: Compound concentration 1000.0 nM
[9] = target: Ephrin type-B receptor 3 (Homo sapiens) (UniProt P54753); settings: Compound concentration 1000.0 nM
[10] = target: Receptor-type tyrosine-protein kinase FLT3 (Homo sapiens) (UniProt P36888); settings: Compound concentration 1000.0 nM
[11] = tested on: Receptor-type tyrosine-protein kinase FLT3 (Homo sapiens), P36888 [R834Q]; settings: Compound concentration 1000.0 nM
[12] = target: Receptor-type tyrosine-protein kinase FLT3 (Homo sapiens) (UniProt P36888); settings: Compound concentration 1000.0 nM; remark: listed apart in the source
[13] = target: Tyrosine-protein kinase Fyn (Homo sapiens) (UniProt P06241); settings: Compound concentration 1000.0 nM
Chain of Tyrosine-protein kinase Fyn (Homo sapiens) (P06241 2-537 limits assumed): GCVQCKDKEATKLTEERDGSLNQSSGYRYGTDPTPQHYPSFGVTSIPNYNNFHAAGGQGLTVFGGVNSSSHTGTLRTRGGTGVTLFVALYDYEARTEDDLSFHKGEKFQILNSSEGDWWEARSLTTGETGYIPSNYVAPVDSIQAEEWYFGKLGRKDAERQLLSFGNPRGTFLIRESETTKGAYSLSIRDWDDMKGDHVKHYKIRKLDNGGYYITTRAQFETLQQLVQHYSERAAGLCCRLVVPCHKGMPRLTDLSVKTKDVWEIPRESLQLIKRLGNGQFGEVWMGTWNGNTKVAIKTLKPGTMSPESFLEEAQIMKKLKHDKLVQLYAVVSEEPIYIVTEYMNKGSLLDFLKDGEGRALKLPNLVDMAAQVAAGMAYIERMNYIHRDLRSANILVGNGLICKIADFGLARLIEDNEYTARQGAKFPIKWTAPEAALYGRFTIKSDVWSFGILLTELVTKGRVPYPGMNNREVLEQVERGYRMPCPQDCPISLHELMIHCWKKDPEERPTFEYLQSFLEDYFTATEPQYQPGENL

[14] = target: Rhodopsin kinase GRK1 (Homo sapiens) (UniProt Q15835); settings: Compound concentration 1000.0 nM
[15] = target: Homeodomain-interacting protein kinase 1 (Homo sapiens) (UniProt Q86Z02); settings: Compound concentration 1000.0 nM
[16] = target: Mast/stem cell growth factor receptor Kit (Homo sapiens) (UniProt P10721); settings: Compound concentration 1000.0 nM
Chain of Mast/stem cell growth factor receptor Kit (Homo sapiens) (P10721 whole entry): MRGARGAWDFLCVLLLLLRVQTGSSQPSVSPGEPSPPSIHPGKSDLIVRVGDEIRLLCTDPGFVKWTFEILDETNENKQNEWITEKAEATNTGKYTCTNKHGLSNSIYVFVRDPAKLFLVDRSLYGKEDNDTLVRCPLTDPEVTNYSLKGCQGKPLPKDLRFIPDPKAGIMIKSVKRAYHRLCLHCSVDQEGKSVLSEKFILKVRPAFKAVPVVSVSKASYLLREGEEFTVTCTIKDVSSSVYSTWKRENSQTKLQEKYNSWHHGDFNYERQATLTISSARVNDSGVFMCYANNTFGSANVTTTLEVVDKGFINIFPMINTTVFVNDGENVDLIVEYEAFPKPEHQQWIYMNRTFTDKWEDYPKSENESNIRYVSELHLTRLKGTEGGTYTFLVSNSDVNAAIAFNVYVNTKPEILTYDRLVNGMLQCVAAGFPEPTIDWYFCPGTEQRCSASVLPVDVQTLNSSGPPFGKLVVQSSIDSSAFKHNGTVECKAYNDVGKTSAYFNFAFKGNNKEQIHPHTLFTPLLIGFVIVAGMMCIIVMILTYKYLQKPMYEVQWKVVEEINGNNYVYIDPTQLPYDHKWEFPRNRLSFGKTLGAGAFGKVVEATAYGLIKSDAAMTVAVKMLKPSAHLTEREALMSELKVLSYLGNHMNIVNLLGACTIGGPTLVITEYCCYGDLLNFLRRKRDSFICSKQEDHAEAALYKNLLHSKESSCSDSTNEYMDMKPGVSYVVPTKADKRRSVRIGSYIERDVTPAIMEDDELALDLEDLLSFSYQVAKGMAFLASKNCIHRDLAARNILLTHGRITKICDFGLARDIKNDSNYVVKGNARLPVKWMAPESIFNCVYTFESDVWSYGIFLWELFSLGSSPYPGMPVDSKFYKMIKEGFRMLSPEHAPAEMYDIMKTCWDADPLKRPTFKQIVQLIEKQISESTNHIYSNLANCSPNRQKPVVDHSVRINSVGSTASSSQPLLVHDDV

[17] = target: Serine/threonine-protein kinase LATS2 (Homo sapiens) (UniProt Q9NRM7); settings: Compound concentration 1000.0 nM
[18] = target: LIM domain kinase 1 (Homo sapiens) (UniProt P53667); settings: Compound concentration 1000.0 nM
Chain of LIM domain kinase 1 (Homo sapiens) (P53667 whole entry, looked up, the tested form may be a part): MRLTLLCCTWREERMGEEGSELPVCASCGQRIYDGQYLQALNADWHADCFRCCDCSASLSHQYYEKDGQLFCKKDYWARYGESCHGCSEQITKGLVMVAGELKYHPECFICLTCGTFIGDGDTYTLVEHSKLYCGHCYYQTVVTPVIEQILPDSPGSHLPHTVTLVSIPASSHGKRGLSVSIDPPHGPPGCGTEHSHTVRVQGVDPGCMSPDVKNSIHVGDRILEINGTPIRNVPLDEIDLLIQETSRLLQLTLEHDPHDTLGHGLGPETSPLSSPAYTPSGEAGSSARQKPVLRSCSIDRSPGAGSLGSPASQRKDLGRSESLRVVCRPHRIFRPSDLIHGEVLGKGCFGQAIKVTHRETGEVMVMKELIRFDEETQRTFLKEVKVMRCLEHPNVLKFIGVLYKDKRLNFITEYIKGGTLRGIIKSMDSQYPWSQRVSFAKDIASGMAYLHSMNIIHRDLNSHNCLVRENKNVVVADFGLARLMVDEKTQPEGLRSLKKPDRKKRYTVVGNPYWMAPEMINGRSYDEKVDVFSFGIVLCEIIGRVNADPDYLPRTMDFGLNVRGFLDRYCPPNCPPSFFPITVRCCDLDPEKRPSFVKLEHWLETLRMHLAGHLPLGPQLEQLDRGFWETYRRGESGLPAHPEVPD

[19] = target: Mitogen-activated protein kinase kinase kinase 13 (Homo sapiens) (UniProt O43283); settings: Compound concentration 1000.0 nM
[20] = target: Dual specificity mitogen-activated protein kinase kinase 3 (Homo sapiens) (UniProt P46734); settings: Compound concentration 1000.0 nM
Chain of Dual specificity mitogen-activated protein kinase kinase 3 (Homo sapiens) (P46734 whole entry): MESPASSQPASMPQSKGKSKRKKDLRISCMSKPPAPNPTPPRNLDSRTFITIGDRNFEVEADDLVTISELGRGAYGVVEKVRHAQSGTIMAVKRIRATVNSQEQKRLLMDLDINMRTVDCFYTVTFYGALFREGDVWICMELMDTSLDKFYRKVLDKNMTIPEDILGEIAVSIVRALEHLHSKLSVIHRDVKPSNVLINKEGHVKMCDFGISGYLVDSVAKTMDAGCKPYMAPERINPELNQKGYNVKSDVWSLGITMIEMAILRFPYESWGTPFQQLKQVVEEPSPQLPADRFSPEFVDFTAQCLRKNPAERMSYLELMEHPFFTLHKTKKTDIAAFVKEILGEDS

[21] = target: Tyrosine-protein kinase Mer (Homo sapiens) (UniProt Q12866); settings: Compound concentration 1000.0 nM
[22] = target: Dual specificity mitogen-activated protein kinase kinase 7 (Homo sapiens) (UniProt O14733); settings: Compound concentration 1000.0 nM
[23] = target: MAP kinase-interacting serine/threonine-protein kinase 2 (Homo sapiens) (UniProt Q9HBH9); settings: Compound concentration 1000.0 nM
Chain of MAP kinase-interacting serine/threonine-protein kinase 2 (Homo sapiens) (Q9HBH9 whole entry, looked up): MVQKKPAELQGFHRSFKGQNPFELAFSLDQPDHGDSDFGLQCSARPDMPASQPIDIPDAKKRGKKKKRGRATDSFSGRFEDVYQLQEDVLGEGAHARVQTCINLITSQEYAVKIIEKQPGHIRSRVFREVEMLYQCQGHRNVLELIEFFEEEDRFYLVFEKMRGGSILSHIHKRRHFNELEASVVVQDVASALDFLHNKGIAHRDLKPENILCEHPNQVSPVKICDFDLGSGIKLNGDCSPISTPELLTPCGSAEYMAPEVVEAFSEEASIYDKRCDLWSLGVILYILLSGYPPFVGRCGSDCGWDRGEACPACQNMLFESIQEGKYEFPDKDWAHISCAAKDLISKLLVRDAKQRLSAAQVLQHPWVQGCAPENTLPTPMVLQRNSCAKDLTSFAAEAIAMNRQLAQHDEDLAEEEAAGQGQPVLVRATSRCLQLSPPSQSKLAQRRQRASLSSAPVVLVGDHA

[24] = target: Mitogen-activated protein kinase 14 (Homo sapiens) (UniProt Q16539); settings: Compound concentration 1000.0 nM
[25] = target: Serine/threonine-protein kinase PAK 6 (Homo sapiens) (UniProt Q9NQU5); settings: Compound concentration 1000.0 nM
[26] = target: Serine/threonine-protein kinase PAK 5 (Homo sapiens) (UniProt Q9P286); settings: Compound concentration 1000.0 nM
[27] = target: Phosphorylase b kinase regulatory subunit alpha, liver isoform (Homo sapiens) (UniProt P46019); settings: Compound concentration 1000.0 nM
[28] = tested on: Phosphatidylinositol 4,5-bisphosphate 3-kinase catalytic subunit alpha isoform (Homo sapiens), P42336 [E545A]; settings: Compound concentration 1000.0 nM
[29] = target: Serine/threonine-protein kinase pim-2 (Homo sapiens) (UniProt Q9P1W9); settings: Compound concentration 1000.0 nM
[30] = target: Serine/threonine-protein kinase N1 (Homo sapiens) (UniProt Q16512); settings: Compound concentration 1000.0 nM
[31] = target: Protein kinase C eta type (Homo sapiens) (UniProt P24723); settings: Compound concentration 1000.0 nM
[32] = target: Serine/threonine-protein kinase Sgk2 (Homo sapiens) (UniProt Q9HBY8); settings: Compound concentration 1000.0 nM
Chain of Serine/threonine-protein kinase Sgk2 (Homo sapiens) (Q9HBY8 whole entry): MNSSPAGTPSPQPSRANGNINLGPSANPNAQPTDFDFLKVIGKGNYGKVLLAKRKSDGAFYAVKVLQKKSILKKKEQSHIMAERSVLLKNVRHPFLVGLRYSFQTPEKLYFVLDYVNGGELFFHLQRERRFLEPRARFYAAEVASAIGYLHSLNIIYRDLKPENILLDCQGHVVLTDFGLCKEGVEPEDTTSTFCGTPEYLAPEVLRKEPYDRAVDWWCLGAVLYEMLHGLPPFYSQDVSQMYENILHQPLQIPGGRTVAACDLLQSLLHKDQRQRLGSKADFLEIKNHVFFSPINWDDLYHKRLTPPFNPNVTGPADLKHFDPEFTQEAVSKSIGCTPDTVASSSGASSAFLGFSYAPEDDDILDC

[33] = target: Serine/threonine-protein kinase SIK2 (Homo sapiens) (UniProt Q9H0K1); settings: Compound concentration 1000.0 nM
[34] = target: SRSF protein kinase 1 (Homo sapiens) (UniProt Q96SB4); settings: Compound concentration 1000.0 nM
[35] = target: SRSF protein kinase 3 (Homo sapiens) (UniProt Q9UPE1); settings: Compound concentration 1000.0 nM
[36] = target: Serine/threonine-protein kinase 33 (Homo sapiens) (UniProt Q9BYT3); settings: Compound concentration 1000.0 nM
[37] = target: Serine/threonine-protein kinase tousled-like 1 (Homo sapiens) (UniProt Q9UKI8); settings: Compound concentration 1000.0 nM
[38] = target: Dual specificity protein kinase TTK (Homo sapiens) (UniProt P33981); settings: Compound concentration 1000.0 nM
[39] = target: Serine/threonine-protein kinase ULK1 (Homo sapiens) (UniProt O75385); settings: Compound concentration 1000.0 nM
[40] = target: Serine/threonine-protein kinase ULK3 (Homo sapiens) (UniProt Q6PHR2); settings: Compound concentration 1000.0 nM
Chain of Serine/threonine-protein kinase ULK3 (Homo sapiens) (Q6PHR2 whole entry): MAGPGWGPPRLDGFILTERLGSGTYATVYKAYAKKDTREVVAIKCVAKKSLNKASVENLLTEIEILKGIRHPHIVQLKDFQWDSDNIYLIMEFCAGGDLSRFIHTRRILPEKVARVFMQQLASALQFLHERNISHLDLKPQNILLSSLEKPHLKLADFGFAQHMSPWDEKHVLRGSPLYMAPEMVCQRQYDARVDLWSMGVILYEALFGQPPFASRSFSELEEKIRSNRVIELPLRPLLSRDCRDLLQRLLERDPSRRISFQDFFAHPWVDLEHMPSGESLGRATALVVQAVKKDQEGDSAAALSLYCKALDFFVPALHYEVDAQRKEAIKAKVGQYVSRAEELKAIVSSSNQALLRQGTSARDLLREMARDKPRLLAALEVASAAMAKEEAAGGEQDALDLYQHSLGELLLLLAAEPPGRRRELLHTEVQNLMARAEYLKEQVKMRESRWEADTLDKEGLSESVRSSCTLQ

[41] = target: Serine/threonine-protein kinase 32C (Homo sapiens) (UniProt Q86UX6); settings: Compound concentration 1000.0 nM
Chain of Serine/threonine-protein kinase 32C (Homo sapiens) (Q86UX6 whole entry): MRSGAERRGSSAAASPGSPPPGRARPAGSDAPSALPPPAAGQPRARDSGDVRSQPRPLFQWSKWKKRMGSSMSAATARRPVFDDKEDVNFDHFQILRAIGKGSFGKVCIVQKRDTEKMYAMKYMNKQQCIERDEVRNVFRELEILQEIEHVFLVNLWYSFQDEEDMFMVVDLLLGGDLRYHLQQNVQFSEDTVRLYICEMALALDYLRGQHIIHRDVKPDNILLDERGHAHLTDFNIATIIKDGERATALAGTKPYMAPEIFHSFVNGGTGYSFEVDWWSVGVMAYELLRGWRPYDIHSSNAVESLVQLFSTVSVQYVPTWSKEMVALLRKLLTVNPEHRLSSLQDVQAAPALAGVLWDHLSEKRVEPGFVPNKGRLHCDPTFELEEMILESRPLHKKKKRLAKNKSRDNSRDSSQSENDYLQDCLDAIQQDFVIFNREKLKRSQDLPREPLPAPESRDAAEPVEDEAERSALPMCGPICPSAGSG

[42] = target: Muscarinic acetylcholine receptor M5 (Homo sapiens) (UniProt P08912); settings: Compound concentration 10.0 uM
[43] = target: GABA-A receptor; anion channel (Rattus norvegicus) (UniProt O09028+P15431+P18506+P18508+P19969+P20236+P23574+P23576+P28471+P28473+P30191+P62813+P63079+P63138+Q91ZM7+Q9ES14); settings: Compound concentration 10.0 uM

O=C1CCc2cc(Nc3cc(OC4CCOCC4)c([N+](=O)[O-])cc3Cl)ccc2N1
inactive: residual activity [1] 74% | residual activity [2] 98% | residual activity [3] 100% | residual activity [4] 100% | residual activity [5] 78% | residual activity [6] 95% | residual activity [7] 80% | residual activity [8] 92% | residual activity [9] 88% | residual activity [10] 90% | residual activity [11] 87% | residual activity [12] 99% | residual activity [13] 64% | residual activity [14] 100% | residual activity [15] 95% | residual activity [16] 95% | residual activity [17] 80% | residual activity [18] 100% | residual activity [19] 91% | residual activity [20] 86% | residual activity [21] 100% | residual activity [22] 100% | residual activity [23] 98% | residual activity [24] 100% | residual activity [25] 86% | residual activity [26] 100% | residual activity [27] 100% | residual activity [28] 100% | residual activity [29] 84% | residual activity [30] 100% | residual activity [31] 86% | residual activity [32] 80% | residual activity [33] 100% | residual activity [34] 73% | residual activity [35] 100% | residual activity [36] 77% | residual activity [37] 92% | residual activity [38] 87% | residual activity [39] 87% | residual activity [40] 100% | residual activity [41] 83% | inhibition [42] 12.6% | inhibition [43] 29.2%

N#Cc1ccc(Nc2ccc3[nH]c(=O)[nH]c3c2)c(Cl)c1
inactive: residual activity [1] 100% | residual activity [2] 100% | residual activity [3] 100% | residual activity [4] 78% | residual activity [5] 86% | residual activity [6] 98% | residual activity [7] 100% | residual activity [8] 100% | residual activity [9] 100% | residual activity [10] 100% | residual activity [11] 90% | residual activity [12] 97% | residual activity [13] 89% | residual activity [14] 100% | residual activity [15] 82% | residual activity [16] 100% | residual activity [17] 95% | residual activity [18] 100% | residual activity [19] 100% | residual activity [20] 75% | residual activity [21] 100% | residual activity [22] 100% | residual activity [23] 100% | residual activity [24] 93% | residual activity [25] 85% | residual activity [26] 100% | residual activity [27] 100% | residual activity [28] 100% | residual activity [29] 83% | residual activity [30] 100% | residual activity [31] 97% | residual activity [32] 65% | residual activity [33] 100% | residual activity [34] 95% | residual activity [35] 100% | residual activity [36] 93% | residual activity [37] 100% | residual activity [38] 88% | residual activity [39] 81% | residual activity [40] 100% | residual activity [41] 82% | inhibition [42] 12.6% | inhibition [43] 10.2%
